Results reported in patent US20230399319A1, “Acylsulfamide Compound and Pharmaceutical Use Therefor” (Japan Tobacco Inc., priority 2019, published 2023).
pIC50: −log10 of the molar value. “And” between values parts separate entries of the source, which are not always exact repeats. Equal entries are not always repeated. Where two headings read alike, the source gives them in different places.

Molecular target: NLRP3 inflammasome (Homo sapiens (Human), UniProt Q96P20)
Assay: Evaluation of NLRP3 inflammasome inhibitory activity (inhibition of IL-1β production in THP1-Null cells, LPS/Nigericin)
[1] = inhibition of IL-1β production in THP1-Null cells

NLRP3 inflammasome, sequence (Q96P20 whole entry): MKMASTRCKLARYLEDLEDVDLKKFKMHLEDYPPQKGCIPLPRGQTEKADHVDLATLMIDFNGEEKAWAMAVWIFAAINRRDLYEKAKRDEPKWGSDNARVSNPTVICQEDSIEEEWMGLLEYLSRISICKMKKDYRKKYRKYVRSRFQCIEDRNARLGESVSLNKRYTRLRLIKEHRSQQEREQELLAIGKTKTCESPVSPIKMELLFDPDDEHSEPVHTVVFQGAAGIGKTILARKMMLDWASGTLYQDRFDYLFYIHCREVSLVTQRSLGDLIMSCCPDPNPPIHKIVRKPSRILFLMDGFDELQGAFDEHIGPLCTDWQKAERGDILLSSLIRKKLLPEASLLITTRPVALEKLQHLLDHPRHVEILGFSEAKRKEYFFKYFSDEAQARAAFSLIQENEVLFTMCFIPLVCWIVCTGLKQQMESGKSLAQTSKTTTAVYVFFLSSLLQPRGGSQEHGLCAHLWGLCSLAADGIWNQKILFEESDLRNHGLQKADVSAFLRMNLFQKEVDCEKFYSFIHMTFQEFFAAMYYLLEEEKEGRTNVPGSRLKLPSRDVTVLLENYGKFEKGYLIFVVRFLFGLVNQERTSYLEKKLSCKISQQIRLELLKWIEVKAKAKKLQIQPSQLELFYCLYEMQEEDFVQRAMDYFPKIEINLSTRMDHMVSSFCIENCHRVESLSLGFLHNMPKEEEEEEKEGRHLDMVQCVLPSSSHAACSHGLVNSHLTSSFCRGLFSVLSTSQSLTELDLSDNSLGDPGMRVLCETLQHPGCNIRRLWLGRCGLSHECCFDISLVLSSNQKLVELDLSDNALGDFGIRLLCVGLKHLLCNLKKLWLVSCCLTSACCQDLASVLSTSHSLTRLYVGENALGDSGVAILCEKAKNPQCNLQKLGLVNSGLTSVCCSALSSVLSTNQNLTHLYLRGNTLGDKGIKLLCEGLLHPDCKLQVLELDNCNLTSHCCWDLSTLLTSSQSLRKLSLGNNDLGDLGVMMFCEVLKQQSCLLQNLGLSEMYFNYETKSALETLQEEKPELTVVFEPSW
Experimental: The NLRP3 inflammasome inhibitory activity of test compounds were evaluated CM the basis of the inhibitory activity of the IL-1β, production in THP1-Null cells (Product Number: thp-null, InvivoGen).
A solution containing a test compound (20 μL/well) was added to test compound-setting wells. […] The supernatant of the culture was cryonically stored (set at −20° C.) until measurement of IL-1β.
The amount of IL-1β in the culture supernatant was quantitated with AlphaLISA IL1 beta kit (Product Number: AL220C, Perkin Elmer). […] Inhibition rates of the test compound-setting wells were calculated on the basis of 100% for the blank-setting wells and 0% for the control-setting wells.

`COC1COCCN(S(=O)(=O)NC(=O)c2coc(Nc3cc(C(F)F)ccc3C)n2)C1` (racemic) [Example 2-331] was tested, and the pIC50 was 7.23.

For `Cc1ccc(C(F)(F)F)cc1Nc1nc(C(=O)NS(=O)(=O)N2CCOCC2c2ccccc2)co1` (racemic) [Example 2-346], the pIC50 was 6.54.

In the case of `CC1COCCN1S(=O)(=O)NC(=O)c1cnc(Nc2c3c(cc4c2CCC4)CCC3)o1` (racemic) [Example 5], the pIC50 was > 7.52.

Compound `CC(C)C1COCCN1S(=O)(=O)NC(=O)c1cnc(Nc2c3c(cc4c2CCC4)CCC3)o1` (racemic) [Example 10] has a pIC50 of 6.68.

`CCC1COCCN1S(=O)(=O)NC(=O)c1cnc(Nc2c3c(cc4c2CCC4)CCC3)o1` (racemic) [Example 11] was tested, and the pIC50 was 7.14.

For `COC1CN(S(=O)(=O)NC(=O)c2cnc(Nc3c4c(cc5c3CCC5)CCC4)o2)C1Cl` (racemic) [Example 12], the pIC50 was 5.40.

`CCC1CN(S(=O)(=O)NC(=O)c2cnc(Nc3c4c(cc5c3CCC5)CCC4)o2)CCO1` (racemic) [Example 16] was tested, and the pIC50 was > 7.52.

`CN(C1CCOC1)S(=O)(=O)NC(=O)c1cnc(Nc2c3c(cc4c2CCC4)CCC3)o1` (racemic) [Example 24] was tested, and the pIC50 was 6.80.

`CC1COCCN1S(=O)(=O)NC(=O)c1coc(Nc2c3c(cc4c2CCC4)CCC3)n1` (racemic) [Example 25] was tested, and the pIC50 was 7.29.

`Cc1ccc(C(F)(F)F)cc1Nc1nc(C(=O)NS(=O)(=O)N2CCC(O)C2)co1` (racemic) [Example 29] was tested, and the pIC50 was 6.92.

With `Cc1ccc2c(c1Nc1nc(C(=O)NS(=O)(=O)N3CCC(O)C3)co1)CCC2` (racemic) [Example 30] the pIC50 was 6.72.

`CC1(O)CCN(S(=O)(=O)NC(=O)c2coc(Nc3c4c(c(F)c5c3CCC5)CCC4)n2)C1` (racemic) [Example 33, 2-((8-fluoro-1,2,3,5,6,7-hexahydro-s-indacen-4-yl)amino)-N-((3-hydroxy-3-methylpyrrolidin-1-yl)sulfonyl)oxazole-4-carboxamide] gave a pIC50 (IL-1β production in THP1-Null cells, PMA/LPS primed, Nigericin 7.5 μmol/L) of 7.00.

With `COCC1CN(S(=O)(=O)NC(=O)c2coc(Nc3c4c(c(Cl)c5c3CCC5)CCC4)n2)CCO1` (racemic) [Example 38] the pIC50 was 7.14.

`O=C(NS(=O)(=O)N1CCCC1C(F)(F)F)c1coc(Nc2c3c(c(Cl)c4c2CCC4)CCC3)n1` (racemic) [Example 40] showed a pIC50 of 6.03.

In the case of `O=C(NS(=O)(=O)N1CCC(O)C1)c1coc(Nc2c3c(c(Cl)c4c2CCC4)CCC3)n1` (racemic) [Example 41], the pIC50 was 7.11.

With `CS(=O)(=O)C1CCN(S(=O)(=O)NC(=O)c2coc(Nc3c4c(c(Cl)c5c3CCC5)CCC4)n2)C1` (racemic) [Example 47] the pIC50 was 6.38.

For `O=C(NS(=O)(=O)N1CCC(O)C1)c1coc(Nc2c3c(c(F)c4c2CCC4)CCC3)n1` (racemic) [Example 52], the pIC50 was 7.49.

With `O=C(NS(=O)(=O)N1CC2CC1CO2)c1coc(Nc2c3c(c(Cl)c4c2CCC4)CCC3)n1` (racemic) [Example 56] the pIC50 was 7.34.

`COC(=O)C1COCCN1S(=O)(=O)NC(=O)c1coc(Nc2c3c(c(Cl)c4c2CCC4)CCC3)n1` (racemic) [Example 72] was tested, and the pIC50 was 6.51.

`COC(=O)CC1COCCN1S(=O)(=O)NC(=O)c1coc(Nc2c3c(c(Cl)c4c2CCC4)CCC3)n1` (racemic) [Example 73] was tested, and the pIC50 was 6.80.

Work on `CN(C)C1CCN(S(=O)(=O)NC(=O)c2coc(Nc3c4c(c(F)c5c3CCC5)CCC4)n2)C1` (racemic) [Example 74] yielded a pIC50 of 6.74.

With `COC1COCCN(S(=O)(=O)NC(=O)c2coc(Nc3cc(C(F)(F)F)ccc3C)n2)C1` (single isomer, unassigned) [Example 2-218] the pIC50 [1] was 7.14.

With `COC1COCCN(S(=O)(=O)NC(=O)c2coc(Nc3cc(C(F)(F)F)ccc3C)n2)C1` (single isomer, unassigned) [Example 2-219] the pIC50 [1] was 7.54.

`Cc1ccc(C2CC2)cc1Nc1nc(C(=O)NS(=O)(=O)N2CCOCC2)co1` [Example 2-001] gave a pIC50 [1] of 7.20.

In the case of `Cc1ccc(C(F)(F)F)cc1Nc1nc(C(=O)NS(=O)(=O)N2CCC(S(=O)(=O)NC(C)C)CC2)co1` [Example 2-007], the pIC50 [1] was > 7.52.

In the case of `Cc1ccc(C(F)F)cc1Nc1nc(C(=O)NS(=O)(=O)N(C)C)co1` [Example 2-010], the pIC50 [1] was 6.92.

In the case of `O=C(NS(=O)(=O)N1CCOCC1)c1csc(Nc2c3c(cc4c2CCC4)CCC3)n1` [Example 2-012], the pIC50 [1] was 7.22 and > 7.52.

Compound `Cc1ccc(C(C)(F)F)cc1Nc1nc(C(=O)NS(=O)(=O)N(C)C)co1` [Example 2-013] has a pIC50 [1] of 7.19.

For `CC(C)n1nc2c(c1Nc1nc(C(=O)NS(=O)(=O)N(C)C)co1)CCC2` [Example 2-014], the pIC50 [1] was 5.22.

Work on `Cc1ccc(C(C)(F)F)cc1Nc1nc(C(=O)NS(=O)(=O)N2CCOCC2)co1` [Example 2-015] yielded a pIC50 [1] of 7.42.

`Cc1ccc(C(F)(F)F)cc1Nc1nc(C(=O)NS(=O)(=O)N2CCCNCC2)co1` [Example 2-029] gave a pIC50 [1] of 6.74.

`CC(=O)NC1CCN(S(=O)(=O)NC(=O)c2coc(Nc3cc(C(F)(F)F)ccc3C)n2)CC1` [Example 2-033] gave a pIC50 [1] of 6.82.

Compound `Cc1ccc(S(F)(F)(F)(F)F)cc1Nc1nc(C(=O)NS(=O)(=O)N(C)C)co1` [Example 2-034] has a pIC50 [1] of 7.00.

Compound `Cc1ccc(C2CC2)cc1Nc1nc(C(=O)NS(=O)(=O)N(C)C)co1` [Example 2-035] has a pIC50 [1] of 6.66.

With `Cc1ccc(C(F)(F)F)cc1Nc1nc(C(=O)NS(=O)(=O)NC2CCOCC2)co1` [Example 2-037] the pIC50 [1] was 5.57.

Compound `Cc1cn(C(C)C)nc1Nc1nc(C(=O)NS(=O)(=O)N(C)C)co1` [Example 2-039] has a pIC50 [1] of 6.30.

In the case of `Cc1ccc(C2CC2)cc1Nc1nc(C(=O)NS(=O)(=O)N2CCCOCC2)co1` [Example 2-042], the pIC50 [1] was 7.25.

`Cc1ccc(C(F)F)cc1Nc1nc(C(=O)NS(=O)(=O)N2CCCOCC2)co1` [Example 2-043] showed a pIC50 [1] of 7.31.

For `Cc1ccc(C2(C)CC2)cc1Nc1nc(C(=O)NS(=O)(=O)N(C)C)co1` [Example 2-044], the pIC50 [1] was 7.22.

In the case of `Cc1ccc(C(F)(F)F)cc1Nc1nc(C(=O)NS(=O)(=O)NC(C)C)co1` [Example 2-046], the pIC50 [1] was 6.49.

`Cc1ccc(C(C)C)cc1Nc1nc(C(=O)NS(=O)(=O)N2CCCOCC2)co1` [Example 2-047] was tested, and the pIC50 [1] was > 7.52.

In the case of `COCCN(C(C)C)S(=O)(=O)NC(=O)c1coc(Nc2cc(C(F)(F)F)ccc2C)n1` [Example 2-048], the pIC50 [1] was > 7.52.

`COCC1CN(S(=O)(=O)NC(=O)c2coc(Nc3cc(C(F)(F)F)ccc3C)n2)CCO1` (stereo not shown) [Example 2-049] gave a pIC50 [1] of 7.34.

In the case of `Cc1ccc(C(F)(F)F)cc1Nc1nc(C(=O)NS(=O)(=O)N2CCNC(=O)CC2)co1` [Example 2-050], the pIC50 [1] was 6.22.

`Cc1ccc(C(C)C)cc1Nc1nc(C(=O)NS(=O)(=O)N(C)C)cs1` [Example 2-054] gave a pIC50 [1] of 7.28.

With `Cc1ccc(C(C)C)cc1Nc1nc(C(=O)NS(=O)(=O)N2CCOCC2)cs1` [Example 2-055] the pIC50 [1] was > 7.52.

With `Cc1ccc(C(C)C)cc1Nc1nc(C(=O)NS(=O)(=O)N2CCCOCC2)cs1` [Example 2-056] the pIC50 [1] was > 7.52.

Work on `COC1CN(S(=O)(=O)NC(=O)c2coc(Nc3cc(C(F)(F)F)ccc3C)n2)C1` [Example 2-057] yielded a pIC50 [1] of 6.24.

`CCc1ccc(C(F)(F)F)cc1Nc1nc(C(=O)NS(=O)(=O)N2CCCOCC2)co1` [Example 2-059] was tested, and the pIC50 [1] was > 7.52.

`CCc1ccc(C(F)(F)F)cc1Nc1nc(C(=O)NS(=O)(=O)N(C)C)co1` [Example 2-060] was tested, and the pIC50 [1] was 7.34.

`Cc1ccc(C(F)(F)F)cc1Nc1nc(C(=O)NS(=O)(=O)N(C)C)cs1` [Example 2-062] was tested, and the pIC50 [1] was 7.32.

`Cc1ccc(CC(F)(F)F)cc1Nc1nc(C(=O)NS(=O)(=O)N2CCCOCC2)co1` [Example 2-063] gave a pIC50 [1] of 7.17.
